Measured values: patent US10568854B2, “Compositions and methods for treating kabuki syndrome and related disorders” (THE JOHNS HOPKINS UNIVERSITY, priority 2014, dated 2020)
Entries after “also recorded” stand apart in the source; their conditions may differ.

How the values were obtained:
[1] = test system: DCX positive cells in the GCL; test: Doublecortin positive fraction of the GCL (Example 2); assay type: in vivo, mouse; conditions: 10 mM/kg/day IP, two weeks, sodium salt
Protocol: Perfusion, sectioning and, staining: For perfusion, cryosectioning and immunofluorescence staining, see Bjornsson et al. (2014). EdU (Life Sciences) in PBS/6% DMSO (10 mg/ml) injections (50 μg/g/day) were performed either with seven consecutive days followed by immediate perfusion or seven consecutive days of injection and then perfusion on the 30th day after the first injection. […] EdU was imaged with Click-iT EdU Alexa Flour 488 Imaging Kit (Invitrogen) as well as DAPI mounting with Vectamount (Vector Laboratories, Burlingame, Calif.). EdU quantification was done blinded to genotype. Labeled cells were counted in every sixth slice in the granule cell layer of the dentate gyrus and average number per slice was calculated for each brain. For immunofluorescence, primary antibodies included Doublecortin (Santa Cruz Biotechnology, 1:200 goat), trimethylated H3K4 (Cell Signaling, Danvers, Mass.; 1:500 rabbit), and Acetylated H3K9 and […] (Cell Signaling, 1:5000). Primary antibodies were incubated overnight at 4° C. in blocking buffer. Doublecortin area measurement: The DCX positive fraction of the GCL was measured by taking 4× pictures and using the Bezier tool on NS elements 2.0 software (Nikon) to measure the area of cells that expressed DCX as well as the entire granule cell layer.

EdU+ cells in the GCL = test: EdU incorporation in the GCL (proliferation / survival); assay type: in vivo, mouse; conditions: 10 mM/kg/day IP, two weeks, sodium salt
Excerpt: Animals and treatment: The mouse model, Kmt2d^+/βGeo, also known as (Mll2Gt^(RRt024)Byg), was generated by BayGenomics (University of California, CA) through insertion of a gene trapped vector, and was used on a fully backcrossed C57BL/6J background. The original unbalanced (6:1 fat to protein ration) diet was purchased from Bio-Sery (Ketogenic Diet AIN-76A-Modified High Fat Paste F3666; Flemington, N.J.), while the balanced diet (4:1 ratio) was also from Bio-Serv (F6689 Rodent Diet, Ketogenic, Fat: Paste). Mice were treated for two weeks on the diet, with the paste replaced several times a week. During MWM testing, given the length of testing (week), the mice were treated for three weeks.
BHB injection and BHB assay: For injections into mice, (R)-(−)-3-hydroxybutyric acid sodium salt (Santa Cruz Biotechnology, Dallas, Tex.) was used at an experimental dose of (10 mM/kg). To detect BHB in the urine (from either injections or ketogenic diet), the β-Hydroxybutyrate (Ketone Body) Colorimetric Assay Kit (Cayman Chemical Company, Ann Arbor, Mich.) was used. […]
Perfusion, sectioning and, staining: For perfusion, cryosectioning and immunofluorescence staining, see Bjornsson et al. (2014). […] EdU quantification was done blinded to genotype. Labeled cells were counted in every sixth slice in the granule cell layer of the dentate gyrus and average number per slice was calculated for each brain. […]

[2] = test system: H3K4me3 indicator in HEK 293 cells; test: H3K4me3 indicator experiment with BHB, FACS; assay type: cell-based; conditions: 24 hours before FACS; sodium salt
Protocol: (§1) Indicator experiments: HEK 293 cells were transfected with lipofectamine LTX (Invitrogen, Carlsbad, Calif.) with either the H3K4me3 indicator or the H4ac indicator, synthesized by OriGene Technologies (Rockville, Md.). Stable transfections were maintained through positive selection with blastacidin […] (Life Technologies, Grand Island, N.Y.). For BHB treatment, (R)-(−)-3-Hydroxybutyric acid sodium salt (Santa Cruz Biotechnology) was added to the medium 24 hours before FACS analysis (FACSVerse, BD Biosciences, Franklin Lakes, N.J.). Data was analyzed using FlowJo (Tree Star Inc., Ashland, Oreg.).

[3] = test system: H4ac indicator in HEK 293 cells; test: H4ac indicator experiment with BHB, FACS; assay type: cell-based; conditions: 24 hours before FACS; sodium salt
Protocol: as §1

[4] = BHB in urine, colorimetric assay; assay type: in vivo, mouse
Protocol: BHB injection and BHB assay: For injections into mice, (R)-(−)-3-hydroxybutyric acid sodium salt (Santa Cruz Biotechnology, Dallas, Tex.) was used at an experimental dose of (10 mM/kg). To detect BHB in the urine (from either injections or ketogenic diet), the β-Hydroxybutyrate (Ketone Body) Colorimetric Assay Kit (Cayman Chemical Company, Ann Arbor, Mich.) was used. Urine from injections was drawn approximately 2 hours after injection and urine from mice on the ketogenic diet was taken in the early afternoon (unless otherwise stated in the text).

[5] = test system: H3K4 trimethylation and histone acetylation; conditions: Huang et al. (2011); cited from earlier work
[6] = test system: H3K4 trimethylation activity in Kmt2d^+/βGeo and Kmt2d^+/+ MEFs; test: H3K4me3 indicator in murine embryonic fibroblasts (MEFs); assay type: cell-based, mouse; conditions: Kmt2d^+/βGeo cells treated with HDAC inhibitor
Excerpt: An H3K4 trimethylation reporter was also created. This reporter is based on the H3 tail on one end and the TBP associated factor III (TAFIII) homeodomain on the other end; the TAFIII homeodomain only identifies and binds to trimethylated K4 on H3. When the H3K4 site gets trimethylated, the TAFIII homeodomain can bind to the modified H3 tail and bring the two parts of the separated GFP in close proximity. The activity of the epigenetic modification system can be quantified through fluorescence.
(§2) Epigenetic reporter alleles: Epigenetic reporter alleles were synthesized (OriGene, Rockville, Md.) using published sequences for component elements (Baird et al. (1999) Proc. Nail. Acad. Sci. 96:11241-6; Souslova et al. (2007) BMC Biotechnol. 7:37). Single nucleotide mutations were created using the QuickChange Lightening kit (Agilent Technologies Inc, Santa Clara, Calif.). For H4ac indicator, K5R, K8R, K12R, K16R and K20R (MUT indicator) were introduced. For H3K4me3 indicator, K4Q and D890A/W891A and M882A (three separate constructs) were introduced. For transient transfections, mouse embryonic fibroblasts (see below) were transfected with Fugene HD (Promega, Madison, Wis.), 48 hours prior to FACS. […] For drug stimulation, drug was added to the media 24 hours prior to FACS. For stable transfections in T293 (American Type Culture Collection) cells, 10 μg/ml of Blastocidin (Life Technologies, Carlsbad, Calif.) was added to the media for several weeks. For stable transfection in MEFs, the reporter was transferred to a ViraPower Lentiviral Expression System (Life Technologies, Carlsbad, Calif.). After selection with Blastocidin, the drug of interest was added 24 hours prior to FACS. SAHA, AR-42 and MS275 were purchased from Selleck (Selleck Chemicals, Houston, Tex.). […] FACS data were analyzed using FlowJo (Tree Star Inc, Ashland, Oreg.). A plasmid expressing HDAC3 was acquired from Addgene (Cambridge, Mass., plasmid 13819) and transfected into a stable cell line carrying the H4 acetyl reporter allele.

[7] = test system: H4ac indicator (H4 acetylation machinery activity) in HEK293 cells; test: H4ac (acetylation) indicator reporter assay, FACS; assay type: cell-based
Excerpt: Design of the indicator constructs. A genetically encoded histone reporter allele system has been developed which can be used to monitor activity of any histone maintenance machinery component in live cells. Previously, FRET based epigenetic activity systems have been created (Lin and Ting (2004) Angew Chem Int Ed Engl. 24;43 (22):2940-3; Lin et al. (2004) J. Am. Chem. Soc. 19;126(19):5982-3; U.S. Pat. No. 7,056,683). However, FRET-based assays need a complex technological setup which is not widely available and FRET-based assays have been much more difficult to introduce into transgenic mouse models. […] The particular construct design is based on a circularly permutated green fluorescent protein (GFP) that lacks fluorescence unless the two parts of GFP are brought into close proximity by external forces (Baird et al. (1999) Proc. Natl. Acad. Sci. U.S.A. 28;96(20):11241-6). The constructs are targeted to the nucleus through a nuclear localization signal (NLS). Mutants were also created that knocked out the activity of the indicator allele.
The acetyl reporter protein quantifies the activity of the acetylation machinery (acetylation of H4 specifically at the 5th, 8th, 12th and 16th Lysine's) and comprises an H4 tail on one end (the target for acetylation) and a TBP associated factor II (TAFII) bromodomain on the other end of the reporter protein. The TAFII bromodomain only recognizes and binds to the acetylated H4 tail, resulting in reconstitution of GFP structure and function (i.e. fluorescence). Therefore, the reporter protein has no fluorescence unless it is acetylated by the acetylation system of the nucleus of the cell.
as §2

C[C@@H](O)CC(=O)[O-].[Na+] [BHB, (R)-(−)-3-hydroxybutyric acid sodium salt]
DCX positive cells, treated Kmt2d^+/βGeo versus treated Kmt2d^+/+ [1]: not to Kmt2d^+/+ BHB treated levels; also recorded: did not lead to a full recovery
DCX positive cells, treated versus vehicle ([1]; Kmt2d^+/βGeo): increase in DCX expression; also recorded: significant increase in DCX positive cells
EdU positive cells, treated Kmt2d^+/βGeo versus Kmt2d^+/+ (EdU+ cells in the GCL): did not recover back; also recorded: did not lead to a full recovery
EdU positive cells (proliferation), treated versus vehicle (EdU+ cells in the GCL; Kmt2d^+/βGeo): significant increase in EdU expression; also recorded: significant increase in EdU positive cells
H3K4me3 indicator response to increased amounts in culture media [2]: dose-dependent increased activity; also recorded: dose-dependent response
H4Ac indicator response to increased amounts in culture media [3]: dose-dependent increased activity; also recorded: dose-dependent response
BHB level in the urine over a 12 hour day after one injection ([4]; 10 mM/kg at 9 AM): decreased to vehicle injected levels over a matter of hours
BHB level in the urine after injection ([4]; 10 mM/kg, urine after 1.5 hours): most similar to treatment with a ketogenic diet
time of maximal drug activity ([4]; after injection): 1.5 h

Nc1ccccc1NC(=O)c1ccc(CNC(=O)OCc2cccnc2)cc1 [MS275, Pyridin-3-ylmethyl N-[[4-[(2-aminophenyl)carbamoyl]phenyl]methyl]carbamate]
effect on H3K4 trimethylation and histone acetylation [5]: increase H3K4 trimethylation and histone acetylation
H3K4 trimethylation activity [6]: enhanced; also recorded: improved

O=C(CCCCCCC(=O)Nc1ccccc1)NO [SAHA, N′-hydroxy-N-phenyl-octanediamide]
cells easily discriminated from auto fluorescence (H4ac indicator) ([7]; 1 μM of SAHA): 5%
cells easily discriminated from auto fluorescence (H4ac indicator) ([7]; 2.5 μM of SAHA): 20%
cells easily discriminated from auto fluorescence (H4ac indicator) ([7]; 7.5 μM of SAHA): 40%
cells easily discriminated from auto fluorescence (H4ac indicator) ([7]; 10 μM of SAHA): 45%
fluorescence response of acetylation indicator to increasing amounts of drug ([7]; FACS, culture systems): linear fluorescence response; also recorded: increasing fluorescence
acetylation of the indicator ([7]; FIG. 18A): increases acetylation of the indicator
H4ac indicator signal upon stimulation ([7]; HEK293 cells stably expressing the H4ac indicator): increased signal
